Among the data in the METLIN SMRT retention time set (Domingo-Almenara et al. 2019) are RP-LC retention time values, retold here.

Structures are written as SMILES.

The series can be described thus: gradient 5% acetonitrile 3 min, to 50% in 2 min, to 85% in 15 min, held 3 min, 100 µL/min. The following applies: column: Zorbax Extend-C18 2.1 x 50 mm; eluents: water / acetonitrile, 0.1% formic acid. A digest of the protocol:
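In both positive and negative ionization mode, a quadrupole time-of-flight mass spectrometer coupled to HPLC analyzed pure standards run in mixtures of ~100 molecules. The Zorbax Extend-C18 column (2.1 × 50 mm, 1.8 μm) was operated at 100 μL/min with water and acetonitrile, each containing 0.1% formic acid. The dead volume was 40 μL and the dwell volume 900 μL. Retention time came from adduct peaks that were computationally picked and individually inspected by hand.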
For the compound `Cc1cc2nn(CC(=O)Nc3ccc(Br)cc3F)c(=O)n2c(-c2ccc(F)cc2)n1`, the RP-LC retention time was determined as 952 s.
The result for `CCCN1CCn2cc(S(=O)(=O)Nc3ccccc3C)cc2C1=O` reads 746 s.
The result for `O=C1CC(c2noc(-c3cc(F)ccc3F)n2)CN1c1ccc(Cl)cc1` (stereo not given) reads 1020 s.
`Cc1ccc(-c2cc3c(=O)n(Cc4nc(-c5ccc(F)cc5)no4)ncn3n2)c(C)c1` had an RP-LC retention time of 1220 s.
For the compound `CCCn1cc(C2=CCN(C(=O)Nc3cccc(Cl)c3F)CC2)c2cccnc21`, the RP-LC retention time worked out at 773 s.
In turn, `CCc1nc(OCC(=O)Nc2ccccc2CC)c2ccccc2n1` yielded an RP-LC retention time of 830 s.
The compound `O=C(NC1CCCC1)C1CCCN(c2ccc(=O)n(-c3cccc(Cl)c3)n2)C1` (stereo not given) yielded an RP-LC retention time of 845 s.
`CCOCCCNC(=O)C1CCCN(c2nccnc2Oc2ccc(C)cc2)C1` (stereo not given) displayed an RP-LC retention time of 926 s.
Regarding `O=C(N1CCCC1c1nc(CCOCC2CC2)no1)C1(c2ccccc2)CC1` (stereo not given), the RP-LC retention time is 886 s.
The compound `O=C(c1ccccc1Cl)N1CCN=C1N1CCCCC1` displayed an RP-LC retention time of 638 s.
As for `COCC(=O)N(C1CCOCC1)C1CCN(S(=O)(=O)c2ccccc2F)CC1`, the RP-LC retention time stood at 740 s.
The compound `Cc1ccc(-c2nnc(-c3nc(NCCc4c(C)noc4C)c4ccccc4n3)o2)cc1` yielded an RP-LC retention time of 955 s.
Take `COc1ccccc1CNC1=NCCNC12CCN(S(=O)(=O)c1ccccc1)CC2`: the RP-LC retention time came out at 692 s.
With `Cc1ccc(C)c(NS(=O)(=O)c2cc3n(c2)CCCNC3=O)c1`, the RP-LC retention time worked out at 663 s.
With `CCn1c(=O)sc2cc(S(=O)(=O)N3CCC(C(=O)NC4CCCc5ccccc54)CC3)ccc21` (stereo not given), the RP-LC retention time stood at 957 s.
`Cn1cc(C(=O)N2CCOCC2)c2cccnc21` registered an RP-LC retention time of 601 s.
In turn, `O=C(c1nnc(-c2ccc(S(=O)(=O)N3CCOCC3)cc2)o1)N1CCN(c2ccccc2)CC1` yielded an RP-LC retention time of 905 s.
In the case of `CCCN(CC1CCOC1)S(=O)(=O)c1ccccc1C(F)(F)F` (stereo not given), the RP-LC retention time turned out to be 946 s.
For the compound `O=C(CCNc1c(-c2cccc(F)c2)nc2cnccn12)NCc1cc(F)cc(F)c1`, the RP-LC retention time was 769 s.
The result for `Cc1cccc(CNC(=O)c2nc3cccnc3n(CC(C)C)c2=O)c1` reads 580 s; that for `CC(=O)N1CCN(c2nc3c(s2)CC(C(=O)Nc2cccc4c2CCCC4)CC3)CC1` (stereo not given), 632 s; that for `Cc1ccc(NC(=O)Cn2cccc2-c2nnc(C3CC3)o2)c(Cl)c1`, 930 s.
Turning to `COc1ccc(-c2c(C)noc2NC(C)=O)cc1S(=O)(=O)NCCc1ccc(Cl)cc1`, the RP-LC retention time was 894 s.
`c1cc(-c2nc(-c3ccc(OC4CNC4)cc3)no2)ccn1` had an RP-LC retention time of 604 s.
In turn, `O=C(NC(c1ccccc1)c1nnc(-c2ccccc2)o1)c1ccco1` (stereo not given) came in with an RP-LC retention time of 876 s.
Take `COC(=O)c1ccc(NC(=O)C2CCCN(c3nc4ccccc4nc3OC)C2)cc1` (stereo not given): the RP-LC retention time worked out at 1120 s.
For `CC(C)NC(=O)c1ccc(-c2nc3cc(NS(=O)(=O)Cc4cccc(F)c4)ccc3n2C)cc1` the value was 687 s.
With `O=C(Cc1noc2ccccc12)Nc1cccc2nsnc12`, the RP-LC retention time is 814 s.
Compound `CC(C)c1nnc(-c2ccc(=O)n(CC(=O)N3CCC4(CC3)OCCO4)c2)o1` had an RP-LC retention time of 609 s.
For `C=CCN1C(=O)COc2ccc(-c3csc(NC(=O)CCC4CCCCC4)n3)cc21` the value was 1210 s.
Regarding `CN(C)C(=O)c1ccc2c(c1)N(CC(=O)NCc1ccc(Cl)cc1)C(=O)CO2`, the RP-LC retention time was determined as 707 s.
`COC[C@@H]1CN(c2cnccn2)C[C@H]1C(=O)NCC1CC1`: the RP-LC retention time was determined as 594 s.
For `Fc1ccc(-c2noc(-c3ccc(NCCN4CCOCC4)nc3)n2)cc1` the value was 687 s; for `Cc1ccc(NC(=O)N2CCN(c3ccc(=O)n(-c4ccccc4)n3)CC2)cc1Cl`, 708 s.
Regarding `Fc1ccc(OCc2nnc3sc(-c4ccc(Cl)cc4)nn23)cc1`, the RP-LC retention time amounted to 1030 s.
Compound `CCS(=O)(=O)N1CCOc2ccc(NC(=O)COC)cc2C1` displayed an RP-LC retention time of 654 s.
For `Cc1cc(-c2c(C)sc(C)c2S(=O)(=O)NCc2ccccc2Cl)n[nH]1` the value was 1060 s; for `Cc1ccc(C)c2sc(N(C)CC(=O)NCCSc3nncn3C)nc12`, 719 s.
The compound `Cn1c(C(=O)N2CCN(c3cccc(Cl)c3)CC2)cc2sccc21` yielded an RP-LC retention time of 1090 s.
Regarding `Cc1cnn(CC(=O)N2CCCCCCNC(=O)[C@@H]3CCCC[C@@H]32)c1`, the RP-LC retention time turned out to be 716 s.
For `COCc1nc(CCNC(=O)NCC(C)C)no1` the value was 626 s.
The result for `COc1cccc(Cn2c(C(=O)N3CCC(C(=O)NC4CCCCCC4)CC3)cc3ccsc32)c1` reads 1070 s; that for `Cc1ccc(N2CCN(c3nccn4c(=O)n(CC(=O)Nc5ccc(F)c(Cl)c5)nc34)CC2)cc1`, 1040 s; that for `Cc1ccc(Cl)cc1N1C(=O)CN(S(C)(=O)=O)CC1(C)C(=O)NC1CCCCCCC1` (stereo not given), 980 s.
Regarding `CC1Oc2ccccc2N(CC(=O)NC2CC2)C1=O` (stereo not given), the RP-LC retention time turned out to be 691 s.
`CCc1cccc(C)c1Nc1c(-c2ccc(Cl)cc2)nc2nc(C)cc(C)n12` had an RP-LC retention time of 985 s.
Regarding `COc1ccc(NC(=O)N2CCCC2c2nc(-c3ccccc3OC)no2)c(OC)c1` (stereo not given), the RP-LC retention time stood at 871 s.
`Cc1ccc(CNS(=O)(=O)c2cc(-c3nc(C(C)(C)C)cs3)cs2)cc1` came in with an RP-LC retention time of 1320 s.
`CCNc1cc(N2CCC(CCC(=O)NCc3cccc(F)c3)CC2)ncn1` yielded an RP-LC retention time of 665 s.
The compound `COc1ccccc1-c1nn2c(-c3cc(C(C)C)[nH]n3)nnc2s1` came in with an RP-LC retention time of 872 s.
For `CS(=O)(=O)N1CCC(N2C[C@H](Oc3ccccc3)[C@@H]2c2ccncc2)CC1` the value was 630 s.
The result for `CCCC(=O)N1CCCC1COc1ccc(C(=O)NC2CC2)cc1` (stereo not given) reads 717 s; that for `CC1(C)Cc2c(C#N)c(N3CCN(C(=O)c4ccc([N+](=O)[O-])cc4)CC3)nc(-c3ccccc3)c2CO1`, 1140 s; that for `COc1ccc(-c2noc(C3CC(=O)N(c4cccc(Cl)c4)C3)n2)cc1` (stereo not given), 998 s.
For `CN1CCC(Cc2ccc(C(=O)O)cc2)CC1` the value was 569 s; for `COC(=O)c1c(-c2ccccc2)noc1NCc1ccc(OC)cc1OC`, 1070 s; for `Cc1cccc(OCC(=O)Nc2nnc(C3CC(=O)N(c4ccccc4)C3)o2)c1C` (stereo not given), 726 s.
The compound `O=c1c2cc(-c3ccccc3)nn2ccn1Cc1noc(CN2CCCCCCC2)n1` yielded an RP-LC retention time of 705 s.
In turn, `COc1cccc(NS(=O)(=O)c2cc3n(c2)CCN(CC(C)C)C3=O)c1` yielded an RP-LC retention time of 784 s.
`CCNCc1cc(C(C)(C)C)c(O)c(C(C)(C)C)c1` registered an RP-LC retention time of 753 s.
`CCOc1ccc(-c2noc(Cn3cnc4c(oc5ccccc54)c3=O)n2)cc1OC`: the RP-LC retention time amounted to 916 s.
In turn, `Cc1nnsc1C(=O)Nc1nnc(Cc2ccc3c(c2)OCO3)o1` yielded an RP-LC retention time of 740 s.
For `Cn1c(=O)c(N2CCCC(C(=O)N3CCCCCC3)C2)nc2cccnc21` (stereo not given), the RP-LC retention time is 918 s.
Take `Cc1cccc(CN2CCn3c(nnc3[C@@H]3C[C@@H](O)CN3C)C2)c1`: the RP-LC retention time worked out at 590 s.
In turn, `Cc1ccc(Cn2c(=O)c(N3CCCC(C(=O)NCc4cccs4)C3)nc3ccccc32)cc1` (stereo not given) came in with an RP-LC retention time of 1170 s.
Take `Cc1cc(C)c(S(=O)(=O)N2CCN(C(=O)c3ccc4c(c3)OCO4)CC2)c(C)c1`: the RP-LC retention time amounted to 912 s.
For `c1cc(CN2CC(Oc3ccc(-c4noc(C5CCOCC5)n4)cc3)C2)cs1`, the RP-LC retention time came out at 671 s.
Compound `Cc1nn(C(C)C(=O)Nc2ccc(Cl)cn2)c(=O)c2c(-n3cccc3)n(-c3ccccc3)nc12` (stereo not given) displayed an RP-LC retention time of 1120 s.
The compound `COC(=O)c1ccc(NC(=O)CSc2nnc(-c3cccs3)o2)cc1` gave an RP-LC retention time of 648 s.
`Nc1cc(C2CCN(C(=O)c3cccc(Br)c3)CC2)no1` came in with an RP-LC retention time of 709 s.
The result for `Cc1cccc(OCCc2noc(C3CCNC3)n2)c1` (stereo not given) reads 646 s.
Take `CC1(C(=O)NC2CCCCCC2)Cn2c(cc3occc32)C(=O)N1Cc1cccnc1` (stereo not given): the RP-LC retention time stood at 661 s.
`Cc1nc2cc(-c3noc(Cc4cccc(Cl)c4)n3)ccc2o1` came in with an RP-LC retention time of 1070 s.
Turning to `Cc1cc(C)cc(NC(=O)Cn2ccc3ccn(C)c3c2=O)c1`, the RP-LC retention time turned out to be 829 s.
The compound `COCCNS(=O)(=O)c1cc(-c2cc(C(F)(F)F)on2)sc1C` yielded an RP-LC retention time of 982 s.
The compound `CCN1CCN(Cc2ccc(C(=O)NCc3cc(F)cc(F)c3)cc2)C(=O)C1=O` gave an RP-LC retention time of 682 s.
`O=C(NC1CCCCC1)N1CCCC(Cn2c(C3CC3)nc3cccnc32)C1` (stereo not given) came in with an RP-LC retention time of 668 s.
In the case of `COc1ccc(NC(=O)N2CCc3cn(CC(C)C)c4cccc(c34)C2)cc1`, the RP-LC retention time turned out to be 1030 s.
`COCc1nc2c(N)cccn2n1`: the RP-LC retention time is 569 s.
For `COCCn1cc(CCNC(=O)Nc2ccc(C)cc2)c2cccnc21` the value was 718 s.
